Data set [1] deals with P. berghei sporozoites (PbLuc-GFP). In words: In vivo chemoprotective efficacy against sporozoite liver infection. More on the design: species or system Plasmodium berghei in mice.
The conditions of data set [2]: in vitro; cited from earlier work.
For another data set, the system named is P. falciparum 3D7. Nature of the data set: Asexual blood stage growth inhibition, SYBR Green I, 72 h. The class given is cell-based. The conditions noted are these: Plasmodium falciparum, mean (standard error) of 3 biological replicates. The procedure: (§1) Asexual blood stage P. falciparum strains, including 3D7 and drug-resistant field isolates, were cultured using standard conditions in RPMI 1640 with 0.5% Albumax as described previously. EC₅₀ values were determined using a SYBR Green I fluorescence assay after 72 h of compound exposure. EC50 values were derived by nonlinear regression in GraphPad Prism version 10.

The subject of another data set is P. falciparum TM90_C2B. Described as above. The conditions noted are these: Plasmodium falciparum, mean (standard error) of 3 biological replicates. The class given is cell-based. The procedure:
as §1

For the next data set, the system named is P. falciparum K1. Described as above. The conditions noted are these: Plasmodium falciparum, mean (standard error) of 3 biological replicates. The class given is cell-based. The procedure:
as §1

Another data set concerns P. falciparum 7G8. The description is as above. The class given is cell-based. Particulars: Plasmodium falciparum, mean (standard error) of 3 biological replicates. The procedure: as §1
The subject of data set [3] is P. berghei sporozoites infecting HepG2 cells. Particulars: cited from earlier work.
Data set [4] deals with P. falciparum CamWT and CamC580Y. Particulars: ring-stage assays; cited from earlier work.
The test system of the next data set is PfPKG. Particulars: cited from earlier work.
A further data set relates to P. cynomolgi schizont. Nature of the data set: Schizont formation in primary simian hepatocytes, high-content imaging. The format is cell-based, Plasmodium cynomolgi. The conditions noted are these: Plasmodium cynomolgi, Hepatocyte. The protocol: Liver stage antimalarial activity was evaluated using sporozoites from P. falciparum (NF54 strain) and P. cynomolgi bastianellii (B strain). P. falciparum-infected Anopheles stephensi mosquitoes were reared at WRAIR, while P. cynomolgi-infected Anopheles dirus mosquitoes were obtained from the Armed Forces Research Institute of Medical Sciences (AFRIMS), Thailand. Sporozoites were isolated by dissecting salivary glands under sterile conditions, followed by gentle mechanical disruption. Freshly isolated sporozoites were immediately used for hepatocyte infection.
(§2) Primary cryopreserved hepatocytes were selected based on host-parasite compatibility: primary simian hepatocytes (lot OQB) for P. cynomolgi and human hepatocytes (lot BGW) for P. falciparum (BioIVT Inc., Baltimore, MD, USA). Cells were thawed according to the manufacturer’s protocol and seeded into 384-well collagen-coated assay plates (Greiner Bio-One, Monroe, NC, USA) using InVitroGro CP plating medium (BioIVT). Seeding densities were optimized for uniform monolayer formation, and hepatocytes were allowed to adhere for 24–48 hours before infection. Sporozoites were added at a 1:1.1 hepatocyte-to-sporozoite ratio within 48 hours post-seeding. Automated robotic systems were used for media changes and compound additions to ensure assay consistency and minimize variability associated with manual pipetting.
Test compounds (PfPKG inhibitors) and assay drug controls (KDU-691 and tafenoquine) were solubilized in DMSO or PBS and serially diluted into 8- or 12-point, 2- or 3-fold series, achieving final assay concentrations ranging from 20 µM to 0.019 µM. Compounds were introduced using a calibrated pin tool controlled by robotic arms (V&P Scientific), ensuring a 1:1000 dilution into assay wells. Media were replenished daily with fresh drug-containing HCM. […]
Cells were fixed using 4% paraformaldehyde for 20 minutes at room temperature, followed by three PBS washes, and stored at 4°C until further processing. Parasite detection was performed using species-specific primary antibodies, with P. cynomolgi parasites labeled using a mouse monoclonal anti-Plasmodium GAPDH antibody (1.6 μg/mL, European Malaria Reagent Repository) and P. falciparum parasites detected using a rabbit polyclonal anti-PfHSP70 antibody (1:70 dilution, LS Bio, USA). […]
High-content imaging was performed using the Operetta CLS system (Revvity) and image analysis was performed with Harmony software version 4.9 (Revvity, Waltham, MA, USA). Images were acquired at 10x or 20x magnification using DAPI and TRITC fluorescence channels. Following the established protocol, parasites were classified as hypnozoites or schizonts based on fluorescence intensity (mean and maximum), morphological features (cell roundness and size), and segmentation criteria. […]

Data set [5] can be described thus: Cellular cytotoxicity, hepatocyte nuclear counts. The conditions noted are these: human, primary cryopreserved human hepatocytes (lot BGW); cellular cytotoxicity. The format is cell-based, human.
Text: as §2
(§3) Test compounds (PfPKG inhibitors) and assay drug controls (KDU-691 and tafenoquine) were solubilized in DMSO or PBS and serially diluted into 8- or 12-point, 2- or 3-fold series, achieving final assay concentrations ranging from 20 µM to 0.019 µM. […]
(§4) High-content imaging was performed using the Operetta CLS system (Revvity) and image analysis was performed with Harmony software version 4.9 (Revvity, Waltham, MA, USA). Images were acquired at 10x or 20x magnification using DAPI and TRITC fluorescence channels. Following the established protocol, parasites were classified as hypnozoites or schizonts based on fluorescence intensity (mean and maximum), morphological features (cell roundness and size), and segmentation criteria. […] Hepatocyte viability was determined by quantifying nuclear counts per well using Hoechst stain intensity thresholds. […] An in-house built Python-based image analysis script identified parasite objects using predefined fluorescence intensity thresholds. […] Parasite size was quantified by calculating the average object area (µm²) of validated parasite structures per well. […] Dose-response inhibition and IC50 were calculated relative to in-plate negative controls (DMSO-treated wells). […]

Data set [6] deals with primary human hepatocytes. In words: Cellular cytotoxicity, hepatocyte nuclear counts. The class given is cell-based. The conditions noted are these: primary human hepatocytes.
Text: as §2, §3, §4

Setting [7] is: Intravenous, 10 mg/kg x1 (-0.5 hpi).

Usually IC50 stands for the point on the concentration scale where inhibition reaches its midpoint. Lower therefore signals inhibition by little substance. One may read the CC50 as the concentration giving 50% cytotoxicity. A higher CC50 goes with better tolerance by the cells.

In the case of `C[C@@H]1CN(C)CC[C@@H]1c1cc(-c2ccncc2)c(-c2ccc(F)cc2)[nH]1.Cl.Cl` [RUPB-61, 4-{5-[(3S,4S)-1,3-Dimethylpiperidin-4-yl]-2-(4-fluorophenyl)-1H-pyrrol-3-yl}pyridine Dihydrochloride], the “No. of mice patent by D21/ No. of mice inoculated” value in data set [1] (setting [7]) is given as 0/5; in [1] (Oral, 10 mg/kg x1 (-3 hpi)) it was 0/5. Also, the “Prepatent period mean ± sd” value in [1] (setting [7]) is listed as “negative”; in data set [1] (Oral, 10 mg/kg x1 (-3 hpi)) it was “negative”. For the same molecule, the “mice developing detectable blood stage infection in the 3-week monitoring period” value in data set [1] (single dose 10 mg/kg, PO (-3 hpi) and IV (-0.5 hpi), 10 mice) is reported as “none”. Further, the first-pass metabolism result in [2] is given as “minimal”. Besides, the IC50 in the data set on P. falciparum 3D7 worked out at 50 nM; in the data set with P. falciparum TM90_C2B it was 139 nM; with P. falciparum K1, 42 nM; with P. falciparum 7G8, 29 nM; with P. cynomolgi schizont, 170 nM. In addition, in data set [3], the “activity against P. berghei sporozoites infecting HepG2 cells” value is on record as “active”. In addition, in data set [4], the “IC50 against DHA-sensitive CamWT compared with DHA-resistant CamC580Y” value is listed as “similar”. Besides, in the data set on PfPKG, the “IC50 against PfPKG variants, RUPB-60 compared with RUPB-61” value is listed as “similar”. In addition, the CC50 at 3 days in [5] was > 20 µM. Further, in [6], the “cytotoxicity against PHH” value is reported as “no cytotoxicity”.

The values above are taken from publication PMC13422867, “An orally available PfPKG inhibitor blocks Plasmodium’s infection of the liver” (PLOS Pathogens, 2026).
